Measured values published in ChEMBL document CHEMBL1125599, “Cholinergic activity of acetylenic imidazoles and related compounds” (J Med Chem, 1991).

Experiments:
Mus musculus [1] = assay: ED50 value determined as oxotremorine antagonism by measuring salivation in mice (in vivo); type: functional
Mus musculus [2] = assay: ED50 value determined as oxotremorine antagonism by measuring tremors in mice (in vivo); type: functional
Mus musculus [3] = assay: ED50 value as cholinergic agonism by measuring lacrimation in mice (in vivo); type: functional
Mus musculus [4] = assay: ED50 value as cholinergic agonist by measuring salivation in mice (in vivo); type: functional
Mus musculus [5] = assay: ED50 value as cholinergic agonist by measuring tremors in mice (in vivo); type: functional
Mus musculus [6] = assay: ED50 value determined as oxotremorine antagonism by measuring lacrimation in mice (in vivo); type: functional
[7] = biological target: Muscarinic acetylcholine receptor; assay: Binding affinity to muscarinic acetylcholine receptor was determined in presence of [3H]OXO-M radioligand (in vitro); type: protein assay
[8] = biological target: Muscarinic acetylcholine receptor; assay: Binding affinity to muscarinic acetylcholine receptor was determined in presence of [3H]QNB radioligand (in vitro); type: protein assay
[9] = biological target: Muscarinic acetylcholine receptor (Rattus norvegicus) (UniProt P08482+P08483+P08485+P08911+P10980); assay: Ratio of Ki value for QNB to that of Ki value for Oxo-M.; type: protein assay

SMILES	ED50 (Mus musculus [1]) [mg/kg]	ED50 (Mus musculus [2]) [mg/kg]	ED50 (Mus musculus [3]) [mg/kg]	ED50 (Mus musculus [4]) [mg/kg]	ED50 (Mus musculus [5]) [mg/kg]	ED50 (Mus musculus [6]) [mg/kg]	Ki [7] [nM]	Ki [8] [nM]	Ki ratio [9]
O=C1OCCN1CC#CCn1ccnc1	> 100	> 100	3	2	3	> 100	5.7	929	164
COC(=O)NCC#CCn1cncc1C	80	> 100	> 100	> 100	> 100	66	191	6825	36
Cc1c[n+](C)cn1CC#CCN1CCCC1=O.[I-]	25	> 100	> 100	> 100	30	9.7	53	303	5.7
COC(=O)N(C)C(C)C#CCn1ccnc1 (centres undefined)	> 100	> 100	8	8	6.6	> 100	13	1355	104
O=C1NCCN1CC#CCN1CCCC1	> 3	> 3	> 3	> 3	–	> 3	13	800	62
COC(=O)N(C)C(C)C#CCn1cncc1C (centres undefined)	6.6	> 100	> 100	> 100	97	3.7	9.5	97	10
COC(=O)N(C)CC#CCn1cncc1C	5.4	> 100	> 100	–	4.5	3	36	1001	28
Cc1cncn1CC#CCN1C(=O)CCC1C (centres undefined)	1.4	14.2	> 100	> 100	> 100	0.8	1.68	11.6	6.9
COC(=O)N(C)CC#CCN1CCCC1	> 10	> 10	3	5.5	1.4	> 10	2.6	550	211
CCOC(=O)N(C)C(C)C#CCn1cncc1C (centres undefined)	17.3	30	> 100	> 100	> 100	9.7	156	568	3.6
CCOC(=O)N(C)CC#CCN1CCCC1	> 100	> 100	> 100	> 100	66	> 100	65	4219	65
CC(C#CCn1ccnc1)N1CCN(C)C1=O (centres undefined)	21	> 100	> 100	–	97	21	120	4009	33
CC1CCC(=O)N1CC#CCN(C)C (centres undefined)	> 100	> 100	3.7	3	1.7	> 100	7.1	690	97
CCOC(=O)N(C)CC#CCn1cncc1C	66	30	> 100	> 100	97	66	156	568	3.6
CN(C)CC#CCN(C)C(=O)N(C)C	> 100	> 100	6.6	8	2	> 100	16	> 10000	–
CN(C)C(=O)N(C)CC#CCN1CCCC1	> 10	> 10	> 10	> 10	1.2	6.6	3.6	140	39
COC(=O)N(C)C(C)C#CCN1CCCC1 (centres undefined)	> 100	> 100	20.9	14.2	9.7	> 100	1.5	64	43

SMILES	ED50 (Mus musculus [1]) [mg/kg]	ED50 (Mus musculus [2]) [mg/kg]	ED50 (Mus musculus [3]) [mg/kg]	ED50 (Mus musculus [4]) [mg/kg]	ED50 (Mus musculus [5]) [mg/kg]	ED50 (Mus musculus [6]) [mg/kg]	Ki [7] [nM]	Ki [8] [nM]	Ki ratio [9]
CC1CCC(=O)N1CC#CCN1CCCC1 (centres undefined)	2	1.7	> 30	> 30	> 30	0.55	1.5	14	9.4
CC(=O)N(C)CC#CCN(C)C	> 10	> 10	1.73	1.73	0.97	> 10	4.2	> 10000	–
CC(C#CCN1CCCC1)N1CCCC1=O (centres undefined)	0.55	3	> 30	> 30	> 30	0.55	1.1	14	13
CCOC(=O)N(C)CC#CCn1ccnc1	97	> 100	> 100	> 100	> 100	97	206	> 10000	–
Cc1cncn1CC#CCN1CCOC1=O	80	> 100	> 100	> 100	30	37	18	151	8.4
Cc1cncn1CC#CCN1CCCC1=O	> 100	> 100	> 100	> 100	2.5	0.8	3.2	64	20
CCOC(=O)N(C)C(C)C#CCn1ccnc1 (centres undefined)	66	> 100	> 100	> 100	> 100	54	273	> 10000	–
CCOC(=O)N(C)C(C)C#CCN1CCCC1 (centres undefined)	> 100	> 100	> 100	> 100	> 100	97	22	110	5
Cc1cn(CC#CCN2CCCC2=O)cn1	37	> 100	> 100	> 100	–	14.2	10.3	377	37
Cc1cncn1CC#CCN1CCN(C)C1=O	> 100	> 100	–	14	2.5	14	8.6	381	44
Cc1cncn1CC#CCn1ccn(C)c1=O	22	> 100	> 100	–	100	8	39	614	16
Cc1nccn1CC#CCN1CCCC1=O	> 100	> 100	–	0.37	0.25	0.45	0.3	3.8	13
CC(C#CCN(C)C)N1CCCC1=O (centres undefined)	> 100	> 100	6.6	6.6	100	> 100	26.4	1702	65
Cc1cncn1CC#CC(C)N1CCCC1=O (centres undefined)	2.5	25.4	> 100	> 100	> 100	0.45	5.22	16.8	3.2
O=C1OCCN1CC#CCN1CCCC1	> 10	> 10	> 10	5.4	3.7	> 10	8.9	1362	153
CC(=O)N(C)CC#CCN1CCCC1	> 10	> 10	0.55	0.55	0.3	> 10	0.92	260	283
CC(=O)N(C)CC#CCn1cncc1C	> 100	> 100	–	45	5.4	6.6	3.61	172	48
